In ChEMBL document CHEMBL1221327, “Allicin and derivates are cysteine protease inhibitors with antiparasitic activity” (Bioorg Med Chem Lett, 2010):
Calls of active or inactive are those of the source. No cut-off for these calls is given here.

Key:
Rhodesain = Rhodesain (Trypanosoma brucei rhodesiense, UniProt Q95PM0); test: Inhibition of Trypanosoma brucei rhodesiense rhodesain
Plasmodium falciparum [1] = test: Antiparasitic activity against Plasmodium falciparum; assay type: functional, organism-based
[2] = molecular target: Rhodesain (Trypanosoma brucei rhodesiense) (UniProt Q95PM0); test: Time dependent inhibition of Trypanosoma brucei rhodesiense rhodesain by Dixon plot analysis
Procathepsin L [3] = molecular target: T1, Procathepsin L (Homo sapiens, UniProt P07711); test: Inhibition of cathepsin L
Target sequence in this assay (P07711 whole entry): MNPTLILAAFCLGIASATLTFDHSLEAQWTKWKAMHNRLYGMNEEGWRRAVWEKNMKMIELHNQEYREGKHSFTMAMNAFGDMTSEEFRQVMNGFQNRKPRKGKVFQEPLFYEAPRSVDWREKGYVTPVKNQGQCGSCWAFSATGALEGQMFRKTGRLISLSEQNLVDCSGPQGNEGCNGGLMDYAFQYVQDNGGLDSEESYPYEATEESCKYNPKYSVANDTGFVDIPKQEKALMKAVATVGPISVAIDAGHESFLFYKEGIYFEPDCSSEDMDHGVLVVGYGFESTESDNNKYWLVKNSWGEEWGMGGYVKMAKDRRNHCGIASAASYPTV

[4] = Inhibition of Plasmodium falciparum falcipain-2
Cathepsin B [5] = molecular target: T2, Cathepsin B (Homo sapiens, UniProt P07858); test: Inhibition of cathepsin B
Plasmodium falciparum [6] = test: Time dependent inhibition of Plasmodium falciparum falcipain-2 by Dixon plot analysis
Procathepsin L [7] = molecular target: T1, Procathepsin L; test: Inhibition of cathepsin L at 20 uM
Target sequence in this assay (P07711 114-333 limits assumed): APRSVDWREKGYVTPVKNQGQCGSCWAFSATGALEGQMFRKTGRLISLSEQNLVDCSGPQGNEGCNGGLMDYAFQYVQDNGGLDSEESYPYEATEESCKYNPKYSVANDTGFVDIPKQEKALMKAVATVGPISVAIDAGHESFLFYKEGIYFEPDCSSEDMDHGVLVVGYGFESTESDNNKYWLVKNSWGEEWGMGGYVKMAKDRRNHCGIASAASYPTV

[8] = molecular target: Rhodesain (Trypanosoma brucei rhodesiense) (UniProt Q95PM0); test: Inhibition of Trypanosoma brucei rhodesiense rhodesain at 20 uM
[9] = test system: Trypanosoma brucei brucei; test: Antiparasitic activity against Trypanosoma brucei brucei; assay type: functional, organism-based
Cathepsin B [10] = molecular target: T2, Cathepsin B; details: 20 uM
Description: Inhibition of cathepsin B at 20 uM

Plasmodium falciparum [11] = test: Inhibition of Plasmodium falciparum falcipain-2 at 20 uM
Cathepsin B [12] = molecular target: T2, Cathepsin B; test: Inhibition of cathepsin B at 100 uM
Procathepsin L [13] = molecular target: T1, Procathepsin L; test: Inhibition of cathepsin L at 100 uM
Target sequence in this assay (P07711 114-333 limits assumed): as above

Plasmodium falciparum [14] = test: Inhibition of Plasmodium falciparum falcipain-2 at 100 uM
Procathepsin L [15] = molecular target: T1, Procathepsin L; test: Time dependent inhibition of cathepsin L by Dixon plot analysis
Target sequence in this assay (P07711 114-333 limits assumed): as above

Chain of Rhodesain (Q95PM0 whole entry): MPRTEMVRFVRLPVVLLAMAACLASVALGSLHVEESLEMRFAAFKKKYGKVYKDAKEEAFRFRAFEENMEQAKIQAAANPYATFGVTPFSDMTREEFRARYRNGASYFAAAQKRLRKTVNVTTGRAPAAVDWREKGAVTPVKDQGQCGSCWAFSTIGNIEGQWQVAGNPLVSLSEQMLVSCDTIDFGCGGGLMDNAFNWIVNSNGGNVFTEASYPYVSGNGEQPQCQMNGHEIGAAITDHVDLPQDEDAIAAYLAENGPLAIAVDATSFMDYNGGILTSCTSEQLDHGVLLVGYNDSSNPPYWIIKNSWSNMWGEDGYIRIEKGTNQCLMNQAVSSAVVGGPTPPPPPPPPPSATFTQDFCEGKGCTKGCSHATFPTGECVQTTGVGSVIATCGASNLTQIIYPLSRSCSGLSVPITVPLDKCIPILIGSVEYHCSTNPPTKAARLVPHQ
Chain of Rhodesain (Trypanosoma brucei rhodesiense) (Q95PM0 1-450): as the sequence (Q95PM0 whole entry) above

Compound | Ki (Rhodesain) [µM] | IC50 (Plasmodium falciparum [1]) [µM] | TDI [2] [min⁻¹ M⁻¹] | Ki (Procathepsin L [3]) [µM] | Ki [4] [µM] | Ki (Cathepsin B [5]) [µM] | TDI (Plasmodium falciparum [6]) [min⁻¹ M⁻¹] | inhibition (Procathepsin L [7]) | inhibition [8] | IC50 [9] [µM] | inhibition (Cathepsin B [10]) | inhibition (Plasmodium falciparum [11]) | inhibition (Cathepsin B [12]) | inhibition (Procathepsin L [13]) | inhibition (Plasmodium falciparum [14]) | TDI (Procathepsin L [15]) [min⁻¹ M⁻¹]
[O-][S+](Cc1ccccc1)SCc1ccccc1 (stereo unspecified) | 2.31 | 30.3 | 7800 | 31.7 | 4.5 | 7.8 | 48600 |  |  |  |  |  |  |  |  | 
C=CCS[S+]([O-])CC=C (stereo unspecified) [ALLICIN] | 5.31 | 5.21 |  | 9.3 | 1.04 | 8.6 |  | inactive | inactive | 13.8 | inactive | inactive |  |  |  | 
CC(C)(C)S[S+]([O-])C(C)(C)C (stereo unspecified) | > 100 | 72.5 |  |  | > 100 |  |  |  |  | > 40 |  |  | inactive | inactive |  | 
CC(C)CCS[S+]([O-])CCC(C)C (stereo unspecified) | 0.36 | 54.7 |  | 3.4 | 3.04 | 18.9 |  |  |  |  |  |  |  |  |  | 
CC(C)(C)S[S+]([O-])Cc1ccccc1 (stereo unspecified) | > 100 | 52.9 |  | > 100 |  |  |  |  |  | 11.9 |  |  | inactive |  | inactive | 
[O-][S+](SC1CCCCC1)C1CCCCC1 (stereo unspecified) | > 100 | 34.4 |  | > 100 | > 100 | > 100 |  |  |  |  |  |  |  |  |  | 
CCCCCCS[S+]([O-])CCCCCC (stereo unspecified) | 1 | 10.9 | 83500 | 10.4 | 1.8 | 5.94 | 44100 |  |  | 3.08 |  |  |  |  |  | 
CCCS[S+]([O-])CCC (stereo unspecified) | 4.44 | 78.3 | 7150 | 11.3 | 26.4 | 15.6 | 10800 |  |  | > 40 |  |  |  |  |  | 6660
